Laboratory results taken from patent publication US6548270B1, “DNA encoding human acid-sensing ion channel BNaC4 (ASIC4)” (Ortho-McNeil Pharmaceutical, Inc., priority 2000, dated 2003).
pIC50: −log10 of the molar value.

Legend:
[1] = biological target: T1, human BNaC4 (Homo sapiens, UniProt Q96FT7); assay: pH 5.5-induced whole cell current in Xenopus oocytes injected with human BNaC4 cRNA (two-electrode voltage clamp); assay type: cell-based; details: 200 uM amiloride, bath application; oocytes injected with hBNaC4 cRNA; n=3
T1 sequence (Q96FT7 1-539): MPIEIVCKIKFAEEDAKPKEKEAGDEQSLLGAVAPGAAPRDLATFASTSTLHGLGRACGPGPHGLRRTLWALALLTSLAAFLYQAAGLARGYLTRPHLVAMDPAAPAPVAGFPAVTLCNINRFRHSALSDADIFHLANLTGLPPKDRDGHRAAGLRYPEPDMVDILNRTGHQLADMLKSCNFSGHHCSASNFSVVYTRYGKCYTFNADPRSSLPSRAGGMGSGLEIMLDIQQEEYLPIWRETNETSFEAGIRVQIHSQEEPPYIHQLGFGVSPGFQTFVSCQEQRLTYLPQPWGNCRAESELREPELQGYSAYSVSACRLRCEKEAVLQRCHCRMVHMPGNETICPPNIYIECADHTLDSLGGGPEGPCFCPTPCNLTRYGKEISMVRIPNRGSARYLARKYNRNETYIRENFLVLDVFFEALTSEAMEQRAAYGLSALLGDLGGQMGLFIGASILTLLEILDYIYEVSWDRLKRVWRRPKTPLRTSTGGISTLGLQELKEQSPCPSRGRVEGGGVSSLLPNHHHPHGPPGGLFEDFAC
Experimental: Xenopus laevis oocytes were prepared and injected using standard methods previously described and known in the art (Fraser et al., 1993). Ovarian lobes from adult female Xenopus laevis (Nasco, Fort Atkinson, Wis.) were teased apart, rinsed several times in nominally Ca-free saline containing: 82.5 mM NaCl, 2.5 mM KCl, 1 mM MgCl2, 5 mM HEPES, adjusted to pH 7.0 with NaOH (OR-2), and gently shaken in OR-2 containing 0.2% collagenase Type 1 (ICN Biomedicals, Aurora, Ohio) for 2-5 hours. When approximately 50% of the follicular layers were removed, Stage V and VI oocytes were selected and rinsed in media consisting of 75% OR-2 and 25% ND-96. […]
Oocytes were injected with 50 nl of the human BNaC4 RNA (0.002-5 ng). […] Whole cell agonist (protons)-induced currents were measured 1-6 days after injection with a conventional two-electrode voltage clamp (GeneClamp50O, Axon Instruments, Foster City, Calif.) using standard methods previously described and known in the art (Dascal, Nathan (1987) The use of Xenopus oocytes for the study of ion channels. CRC Critical reviews in Biochemistry 22:317-387). […]
Functional expression of human BNaC4 in Xenopus oocytes is shown: activation by pH 5.5. […] The oocyte was recorded 3 days after injection of 2 ng hBNaC CRNA. […] The BNaC4 oocytes tested produced currents of at least +60 nA (measured at +80 mV at the end of a voltage ramp protocol) (range +60 to +1240 nA). […]

[2] = biological target: T2, ASIC1B (Rattus norvegicus, UniProt P55926); details: read-out: Amiloride sensitivity, IC50; cited from earlier work
T2 sequence (P55926 1-559 isoform P55926-3): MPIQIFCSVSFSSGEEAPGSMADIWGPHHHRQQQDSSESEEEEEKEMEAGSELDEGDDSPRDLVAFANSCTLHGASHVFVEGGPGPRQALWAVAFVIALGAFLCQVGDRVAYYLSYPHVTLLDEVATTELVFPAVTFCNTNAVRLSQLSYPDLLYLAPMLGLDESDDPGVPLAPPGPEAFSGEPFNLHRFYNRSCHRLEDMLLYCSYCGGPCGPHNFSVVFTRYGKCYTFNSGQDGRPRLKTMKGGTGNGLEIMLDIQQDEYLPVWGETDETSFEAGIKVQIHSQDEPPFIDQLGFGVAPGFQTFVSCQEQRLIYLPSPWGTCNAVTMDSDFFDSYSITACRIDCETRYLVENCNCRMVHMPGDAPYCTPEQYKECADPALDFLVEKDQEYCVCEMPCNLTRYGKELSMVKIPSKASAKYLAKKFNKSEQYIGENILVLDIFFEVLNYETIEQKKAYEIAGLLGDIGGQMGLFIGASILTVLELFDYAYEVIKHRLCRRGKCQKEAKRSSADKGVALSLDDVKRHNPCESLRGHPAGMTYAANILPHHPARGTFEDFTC

block of the pH5.5-induced fast increase in conductance [1]: 40+/−13%
Compound: N=C(N)NC(=O)c1nc(Cl)c(N)nc1N [amiloride]
pIC50 [2]: 4.68
